Reference: US10925876B2, “Methods for using triazolo-pyrazinyl soluble guanylate cyclase activators in fibrotic disorders” (Merck Sharp & Dohme Corp., priority 2016, dated 2021)

Legend:
sGC α1/β1 heterodimer = target: T1, sGC α1/β1 heterodimer (Homo sapiens, UniProt Q02108+Q02153); experiment: Cell-Based sGC Functional Assay (CASA Assay), cGMP generation in CHO-K1/sGC cells;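 further: reference Compound A is a published heme-dependent sGC activator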; details: maximum cGMP production of Compound A set to 100% activation, read-out: % Act. (percent activation relative to Compound A)
T1 construct: expressed in transfected cells
T1 sequence (Q02108 1-690): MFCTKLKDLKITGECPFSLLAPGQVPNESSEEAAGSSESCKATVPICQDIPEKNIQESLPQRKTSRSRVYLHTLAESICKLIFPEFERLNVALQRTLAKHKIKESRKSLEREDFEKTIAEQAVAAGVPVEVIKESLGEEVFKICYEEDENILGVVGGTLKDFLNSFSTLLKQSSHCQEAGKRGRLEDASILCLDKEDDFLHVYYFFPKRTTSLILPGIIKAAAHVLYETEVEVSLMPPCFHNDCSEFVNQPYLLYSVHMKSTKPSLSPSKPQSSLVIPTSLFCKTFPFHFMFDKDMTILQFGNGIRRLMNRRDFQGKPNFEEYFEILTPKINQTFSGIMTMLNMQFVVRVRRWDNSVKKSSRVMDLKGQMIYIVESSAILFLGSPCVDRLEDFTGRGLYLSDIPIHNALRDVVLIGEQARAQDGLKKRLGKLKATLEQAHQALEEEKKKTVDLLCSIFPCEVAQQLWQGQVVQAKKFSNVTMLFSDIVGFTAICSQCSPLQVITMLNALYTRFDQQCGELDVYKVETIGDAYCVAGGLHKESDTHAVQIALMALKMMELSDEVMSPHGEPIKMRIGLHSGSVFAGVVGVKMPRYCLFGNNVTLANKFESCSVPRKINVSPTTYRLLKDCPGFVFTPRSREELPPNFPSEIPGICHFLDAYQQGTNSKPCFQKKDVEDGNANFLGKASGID
T1 sequence (Q02153 1-619): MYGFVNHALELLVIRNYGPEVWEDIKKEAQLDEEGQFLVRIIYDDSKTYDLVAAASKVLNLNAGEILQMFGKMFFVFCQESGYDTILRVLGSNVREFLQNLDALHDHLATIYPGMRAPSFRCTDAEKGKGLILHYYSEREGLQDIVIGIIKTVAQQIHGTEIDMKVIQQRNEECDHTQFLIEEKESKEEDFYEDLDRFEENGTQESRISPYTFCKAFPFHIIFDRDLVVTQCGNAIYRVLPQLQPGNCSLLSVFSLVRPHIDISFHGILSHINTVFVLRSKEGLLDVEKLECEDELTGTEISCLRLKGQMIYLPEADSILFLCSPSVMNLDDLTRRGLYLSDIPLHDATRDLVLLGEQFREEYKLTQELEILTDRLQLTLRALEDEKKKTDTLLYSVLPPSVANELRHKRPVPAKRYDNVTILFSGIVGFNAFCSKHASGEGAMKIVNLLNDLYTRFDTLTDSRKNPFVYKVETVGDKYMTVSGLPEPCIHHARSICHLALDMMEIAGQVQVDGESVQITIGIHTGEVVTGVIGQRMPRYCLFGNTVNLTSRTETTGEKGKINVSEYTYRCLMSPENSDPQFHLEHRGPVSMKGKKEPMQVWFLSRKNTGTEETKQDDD
In short: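 CHO-K1 cells stably expressing human sGC α1/β1, 4×10^5/mL in EBSS with 5 mM MgCl2, 10 mM HEPES, 0.05% BSA, 0.5 mM IBMX, 2.5% DMSO; compounds 1 h at 37 °C ± 1 μM DETA-NO. cGMP by HTRF, expressed as % of reference Compound A maximum; IP and max fold induction from 4P fit.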

[1] = test system: Spontaneously hypertensive rats (SHR); experiment: Acute Efficacy in Spontaneously Hypertensive Rats (SHR), telemetry blood pressure; type: in vivo, rat; details: single oral gavage
From the text: Spontaneously hypertensive rats (SHR, male, Charles River) were implanted with DSI TA11PA-C40 telemetry device (Data Sciences, Inc., St. Paul, Minn.) under isoflurane or ketamine/metomidine anesthesia. The telemetry unit catheter was inserted into the descending aorta via the femoral artery and the telemetry device was implanted subcutaneously in the left flank area. Animals were allowed to recover from surgery for 14 days before the start of any studies. Blood pressure, heart rate, and activity signals from conscious, freely moving rats were recorded continuously for 30 seconds every 10 minutes. On the day prior to administration of compound, a single oral dose of vehicle (10% transcutol/20% Cremophor/70% water) was administered to all animals to establish baseline control data. The blood pressure lowering efficacy of compound (PO) or vehicle was evaluated following a single oral gavage. Data were collected as hourly averages, and changes in blood pressure were calculated by subtracting control baseline data on an hourly basis. Animals were maintained on normal diet with a 12 hour light-dark cycle.
Maximum peak decreases of systolic blood pressure (SBP) in SHR at a particular P.O. dose (mpk milligrams per kilogram) for the following representative compounds are provided. Category A=SBP in SHRs <20 mmHg; Category B=SBP in SHRs 20-40 mmHg; Category C=SBP in SHRs >40 mmHg.

SMILES | Emax (sGC α1/β1 heterodimer) [%] | Maximum peak decrease of systolic blood pressure (SBP) in SHR, Cat. ([1]; P.O. 0.3 mpk) | Maximum peak decrease of systolic blood pressure (SBP) in SHR, Cat. ([1]; P.O. 1 mpk) | Maximum peak decrease of systolic blood pressure (SBP) in SHR, Cat. ([1]; P.O. 3 mpk) | Maximum peak decrease of systolic blood pressure (SBP) in SHR, Cat. ([1]; P.O. 2 mpk)
CC1(c2ccc(Cl)cc2)C(=O)Nc2nc(-c3cn4ncnc4cn3)nc(N)c21 (stereo not drawn) [Example 94A, 2-([1,2,4]triazolo[1,5-a]pyrazin-6-yl)-4-amino-5-(4-chlorophenyl)-5-methyl-5H-pyrrolo[2,3-d]pyrimidin-6(7H)-one] | 138 |  | C (Category C=SBP in SHRs >40 mmHg) |  | 
Nc1nc(-c2cn3ncnc3c(CCCC(F)(F)F)n2)nc2c1C(c1ccc(Cl)c(F)c1)(C1CC1)C(=O)N2 (stereo not drawn) [Example 33A, 4-amino-5-(4-chloro-3-fluorophenyl)-5-cyclopropyl-2-(8-(4,4,4-trifluorobutyl)-[1,2,4]triazolo[1,5-a]pyrazin-6-yl)-5H-pyrrolo[2,3-d]pyrimidin-6(7H)-one] | 107 | C (Category C=SBP in SHRs >40 mmHg) |  |  | 
CC1(c2ccc(O)cn2)C(=O)Nc2nc(-c3cn4ncnc4c(CCC(F)(F)C(F)(F)F)n3)nc(N)c21 (stereo not drawn) [Example 110A, 4-Amino-5-(5-hydroxypyridin-2-yl)-5-methyl-2-(8-(3,3,4,4,4-pentafluorobutyl)-[1,2,4]triazolo[1,5-a]pyrazin-6-yl)-5,7-dihydro-6H-pyrrolo[2,3-d]pyrimidin-6-one] | 70 |  |  | B (Category B=SBP in SHRs 20-40 mmHg) | 
C[C@@]1(c2ccc(F)cc2)C(=O)Nc2nc(-c3cn4ncnc4c(Cc4ccc(F)cc4)n3)nc(N)c21 [Example 85B, (S)-4-amino-2-(8-(4-fluorobenzyl)-[1,2,4]triazolo[1,5-a]pyrazin-6-yl)-5-(4-fluorophenyl)-5-methyl-5H-pyrrolo[2,3-d]pyrimidin-6(7H)-one] | 106 | C (Category C=SBP in SHRs >40 mmHg) |  |  | 
CC1(c2ccc(Cl)cn2)C(=O)Nc2nc(-c3cn4ncnc4c(CCC(F)(F)F)n3)nc(N)c21 (stereo not drawn) [Example 79A, 4-amino-5-(5-chloropyridin-2-yl)-5-methyl-2-(8-(3,3,3-trifluoropropyl)-[1,2,4]triazolo[1,5-a]pyrazin-6-yl)-5H-pyrrolo[2,3-d]pyrimidin-6(7H)-one] | 152 |  | B (Category B=SBP in SHRs 20-40 mmHg) |  | 
CCCCc1nc(-c2nc(N)c3c(n2)NC(=O)C3(C)c2ccc(C(F)(F)F)cn2)cn2ncnc12 (stereo not drawn) [Example 67B, 4-amino-2-(8-butyl-[1,2,4]triazolo[1,5-a]pyrazin-6-yl)-5-methyl-5-(5-(trifluoromethyl)pyridin-2-yl)-5H-pyrrolo[2,3-d]pyrimidin-6(7H)-one] | 119 | B (Category B=SBP in SHRs 20-40 mmHg) |  |  | 
C[C@@]1(c2ccc(F)cc2)C(=O)Nc2nc(-c3cn4ncnc4c(CCC(F)(F)F)n3)nc(N)c21 [Example 74A, (S)-4-amino-5-(4-fluorophenyl)-5-methyl-2-(8-(3,3,3-trifluoropropyl)-[1,2,4]triazolo[1,5-a]pyrazin-6-yl)-5,7-dihydro-6H-pyrrolo[2,3-d]pyrimidin-6-one] | 110 |  | B (Category B=SBP in SHRs 20-40 mmHg) |  | 
Nc1nc(-c2cn3ncnc3c(CCC(F)(F)C(F)(F)F)n2)nc2c1C(c1ccc(Cl)cn1)(C1CC1)C(=O)N2 (stereo not drawn) [Example 7A, 4-amino-5-(5-chloropyridin-2-yl)-5-cyclopropyl-2-(8-(3,3,4,4,4-pentafluorobutyl)-[1,2,4]triazolo[1,5-a]pyrazin-6-yl)-5H-pyrrolo[2,3-d]pyrimidin-6(7H)-one] | 185 | B (Category B=SBP in SHRs 20-40 mmHg) |  |  | 
CC1(c2ccc(F)cn2)C(=O)Nc2nc(-c3cn4ncnc4c(CCC(F)(F)C(F)(F)F)n3)nc(N)c21 (stereo not drawn) [Example 4B, 4-amino-5-(5-fluoropyridin-2-yl)-5-methyl-2-(8-(3,3,4,4,4-pentafluorobutyl)-[1,2,4]triazolo[1,5-a]pyrazin-6-yl)-5H-pyrrolo[2,3-d]pyrimidin-6(7H)-one] | 157 | C (Category C=SBP in SHRs >40 mmHg) |  |  | 

Continued, in another order:

Emax (sGC α1/β1 heterodimer) [%] | SMILES | Maximum peak decrease of systolic blood pressure (SBP) in SHR, Cat. ([1]; P.O. 0.3 mpk) | Maximum peak decrease of systolic blood pressure (SBP) in SHR, Cat. ([1]; P.O. 1 mpk) | Maximum peak decrease of systolic blood pressure (SBP) in SHR, Cat. ([1]; P.O. 3 mpk) | Maximum peak decrease of systolic blood pressure (SBP) in SHR, Cat. ([1]; P.O. 2 mpk)
96 | CCCCc1nc(-c2nc(O)c3c(n2)NC(=O)C3(C)c2ccc(Cl)cn2)cn2ncnc12 (stereo not drawn) [Example 160A, 2-(8-butyl-[1,2,4]triazolo[1,5-a]pyrazin-6-yl)-5-(5-chloropyridin-2-yl)-4-hydroxy-5-methyl-5H-pyrrolo[2,3-d]pyrimidin-6(7H)-one] | B (Category B=SBP in SHRs 20-40 mmHg) |  |  | 
164 | CC1(c2ccc(Cl)c(F)c2)C(=O)Nc2nc(-c3cn4ncnc4c(CCCC(F)(F)F)n3)nc(O)c21 (stereo not drawn) [Example 138B, 5-(4-chloro-3-fluorophenyl)-4-hydroxy-5-methyl-2-(8-(4,4,4-trifluorobutyl)-[1,2,4]triazolo[1,5-a]pyrazin-6-yl)-5H-pyrrolo[2,3-d]pyrimidin-6(7H)-one] |  | C (Category C=SBP in SHRs >40 mmHg) |  | 
114 | CCCc1nc(-c2nc(O)c3c(n2)NC(=O)[C@@]3(C)c2ccc(F)cc2)cn2ncnc12 [Example 165A, (S)-5-(4-fluorophenyl)-4-hydroxy-5-methyl-2-(8-propyl-[1,2,4]triazolo[1,5-a]pyrazin-6-yl)-5,7-dihydro-6H-pyrrolo[2,3-d]pyrimidin-6-one] |  |  | B (Category B=SBP in SHRs 20-40 mmHg) | 
119 | Cc1nc2c(CCC(F)(F)C(F)(F)F)nc(-c3nc(O)c4c(n3)NC(=O)C4(C)c3ccc(Cl)c(F)c3)cn2n1 (stereo not drawn) [Example 132B, 5-(4-chloro-3-fluorophenyl)-4-hydroxy-5-methyl-2-(2-methyl-8-(3,3,4,4,4-pentafluorobutyl)-[1,2,4]triazolo[1,5-a]pyrazin-6-yl)-5H-pyrrolo[2,3-d]pyrimidin-6(7H)-one] |  | A (Category A=SBP in SHRs <20 mmHg) |  | 
87 | CC1(c2cncc(F)c2)C(=O)Nc2nc(-c3cn4ncnc4c(CCC(F)(F)C(F)(F)F)n3)nc(O)c21 (stereo not drawn) [Example 125A, 5-(5-fluoropyridin-3-yl)-4-hydroxy-5-methyl-2-(8-(3,3,4,4,4-pentafluorobutyl)-[1,2,4]triazolo[1,5-a]pyrazin-6-yl)-5H-pyrrolo[2,3-d]pyrimidin-6(7H)-one] |  |  | A (Category A=SBP in SHRs <20 mmHg) | 
253 | CCCc1nc(-c2nc(O)c3c(n2)NC(=O)C3(C)c2ccc(Cl)cc2)cn2ncnc12 (stereo not drawn) [Example 164A, 5-(4-chlorophenyl)-4-hydroxy-5-methyl-2-(8-propyl-[1,2,4]triazolo[1,5-a]pyrazin-6-yl)-5H-pyrrolo[2,3-d]pyrimidin-6(7H)-one] |  |  |  | B (Category B=SBP in SHRs 20-40 mmHg)
